# Measured values reported in patent publication US9770423B2, “Modulation sAPP, sAAPα and BDNF levels in individuals diagnosed with FXS and ASD” (Indiana University Research and Technology Corp., priority 2012, dated 2017).
# Several values for one entry are separate records, joined by “and”; a condition that tells them apart may be missing. Identical values can stand only once.
# Tests used:
# [1] = test system: youth with Fragile X Syndrome (FXS); assay: 10-week open-label trial of acamprosate in youth with FXS: behavioral outcome measures; type: in vivo, human; conditions: for Aberrant Behavior Checklist-Social Avoidance (ABC-SA), end point mean ± SD: baseline 3.3 ± 2.6, p 0.01; for Clinical Global Impressions-Severity (CGI-S), end point mean ± SD: baseline 4.25 ± 0.45; for Clinical Global Impressions-Severity (CGI-S), end point mean ± SD / ADHD Rating Scale 4th Edition (ADHD-RS), end point mean ± SD: p <0.0001; for Aberrant Behavior Checklist-Social Withdrawal (ABC-SW), end point mean ± SD: baseline 8.8 ± 5.8, p 0.04 (Table 2), baseline 7.33 ± 5.2, p 0.014 (Table 5); for Aberrant Behavior Checklist-Hyperactivity (ABC-H), end point mean ± SD: baseline 16.8 ± 9.1, p 0.009; for ADHD Rating Scale 4th Edition (ADHD-RS), end point mean ± SD: baseline 23.6 ± 10.6; for Vineland Adaptive Behavior Scale (VABS) Communication Domain, end point mean ± SD: baseline 63.4 ± 10.1, p 0.03; for VABS Expressive Communication Subdomain, end point mean ± SD: baseline 69.8 ± 23.0, p 0.003; for Social Responsiveness Scale total score (SRS), end point mean ± SD: baseline 91.3 ± 27.4, p 0.005
# Source text: The Institutional Review Board (IRB) at an academic medical center approved this study. Thirteen outpatient males and females aged 5 to 17 years with body weight 15 kg were recruited for this study. Written informed consent was obtained from each participant's legal guardian (parent for all children in this report), and subjects provided assent when able. Diagnosis of FXS was confirmed by Southern Blot and PCR results consistent with a greater than 200 CGG repeat expansion in the FMR1 gene with at least partial gene methylation. Subjects had to be free of other significant medical conditions. The concomitant use of psychotropic drugs that are not thought to impact glutamate neurotransmission were allowed so long as the patients experienced stable dosing at least 4 weeks prior to baseline. Subjects were required to have a mental age of greater than 18 months as determined by the Stanford-Binet 5th Edition. Additional inclusion criteria included a CGI-S(Guy 1976) score of at least 4 (“Moderately Ill”). Subjects with a Diagnostic and Statistical Manual of Mental Disorders, 4th Edition, Text Revision (DSM-IV-TR) diagnosis of a psychotic disorder, bipolar disorder, or substance use disorder were excluded from the study. Additionally, subjects with a positive urine pregnancy test, creatinine clearance of <30, active seizure disorder, or other significant medical condition were excluded.
# A 10-week, prospective, open-label study design was chosen to gather pilot data for potential future larger-scale, double-blind, placebo-controlled studies in this population.
# All subjects underwent a screening and baseline visit followed by follow-up visits every 2 weeks during the 10-week open-label trial period. At the end of weeks 1, 3, and 5 the investigators called the parent to assess drug tolerability and to make dose adjustments as indicated. All subjects received 333 mg/day of acamprosate during the first week of the study. The investigators then increased the dosage to a maximum of 1,998 mg/day (weight>50 kg) or 1,332 mg/day (weight<50 kg) over the first six weeks of the study, if optimal clinical response (CGI-I equal to 1 “very much improved”) had not occurred and intolerable adverse effects had not emerged. The dose maintenance phase lasted 4 weeks at the optimal dosage.
# The CGI-S assessment was administered at screen and at baseline as part of the eligibility criteria described above. In this study, the rater scored the CGI-S in regard to severity of symptoms commonly noted in FXS including, but not limited to, inattention/hyperactivity, social impairment, communication impairment, repetitive behavior, irritability, and anxiety. The CGI-S is rated on a scale from 1 to 7 (1=normal, not ill at all; 2=borderline ill; 3=mildly ill; 4=moderately ill; 5=markedly ill; 6=severely ill; 7=among the most extremely ill patients with FXS). The Autism Diagnostic Observation Schedule (ADOS) (Lord, Rutter et al. 1989) was administered at baseline to characterize potential concomitant ASD diagnosis.
# The primary outcome measure was the CGI-I. The CGI-I is a scale designed to assess global change from baseline. […] Treatment response was defined by a CGI-I score of 1 “very much improved” or 2 “much improved.” In this study, the CGI-I was utilized as a general global primary outcome measure given the uncertainty as to what specific symptoms/behaviors associated with FXS may be expected to improve or worsen with use of acamprosate. The CGI-I was administered at all visits after baseline.
# Secondary outcome measures included all subscales of the ABC (Irritability, Social Withdrawal, Stereotypy, Hyperactivity, and Inappropriate Speech). The ABC is an informant-rated (primary caregiver) measure with confirmed reliability and validity with regard to factor structure, distribution of scores, and sensitivity to change in persons with developmental disability (Aman, Singh et al. 1985). […]
# sAPP = assay: plasma sAPP total by ELISA pre- and post-acamprosate; type: in vivo, human; conditions: individual patients 1-6, titled as diagnosed with FXS; after treatment
# [2] = test system: drinking-in-the-dark mouse model; conditions: cited from earlier work
# [3] = test system: leptin, beta endorphin, cortisol; conditions: humans with alcohol dependence; cited from earlier work
# [4] = FXS, 10 weeks, listed as Acamprosate
# [5] = baseline to endpoint, FXS, p=0.01
# [6] = mean change from baseline to endpoint divided by SD at baseline, FXS
structure (smiles),measurement,setting,value
"CC(=O)NCCCS(=O)(=O)O.[Ca] [acamprosate, Calcium Acetylhomotaurine]",treatment responders (CGI-I score of 1 or 2),"[1]; 12 youth with FXS, 10 weeks, mean final dose 1054 mg/day",75%
same,mean CGI-I at endpoint,"[1]; 12 youth with FXS, scale 1-7",1.9
same,mean CGI-I values for the responders at week 10,"[1]; FXS trial, week 10",1.92
same,"PPVT scores, change with treatment","[1]; FXS, 10 weeks",did not significantly change
same,"SRS Social Awareness and Autistic Mannerisms subscales, change with treatment","[1]; FXS, 10 weeks",Improvement was not noted
same,"other VABS domains, change with treatment","[1]; FXS, 10 weeks",No other changes with treatment were noted
same,"other subscales of the ABC and the CY-BOCS-PDD, change during treatment","[1]; FXS, 10 weeks",did not change significantly
same,"Aberrant Behavior Checklist-Social Avoidance (ABC-SA), end point mean ± SD","[1]; FXS, 10 weeks",1.6
same,"Aberrant Behavior Checklist-Social Avoidance (ABC-SA), end point mean ± SD",[1]; [4],1.6 ± 2.7
same,"Clinical Global Impressions-Severity (CGI-S), end point mean ± SD","[1]; FXS, 10 weeks",3.33
same,"Clinical Global Impressions-Severity (CGI-S), end point mean ± SD",[1]; [4],3.33 ± 0.5 and 3.33 ± 0.49
same,"Aberrant Behavior Checklist-Inappropriate Speech (ABC-IS), end point mean ± SD","[1]; FXS, 10 weeks, baseline 5.2 ± 3.5, p 0.61",4.8 ± 3.4
same,"Aberrant Behavior Checklist-Stereotypy (ABC-S), end point mean ± SD","[1]; FXS, 10 weeks, baseline 6.8 ± 6.8, p 0.09",6 ± 6.3
same,"Aberrant Behavior Checklist-Social Withdrawal (ABC-SW), end point mean ± SD","[1]; FXS, 10 weeks",4.1
same,"Aberrant Behavior Checklist-Social Withdrawal (ABC-SW), end point mean ± SD",[1]; [4],4.1 ± 6.5
same,"Aberrant Behavior Checklist-Irritability (ABC-I), end point mean ± SD","[1]; FXS, 10 weeks, baseline 9.9 ± 7.8, p 0.11",7.0 ± 8.9
same,"Children's Yale-Brown Obsessive Compulsive Scale Modified for PDD (CY-BOCS-PDD), end point mean ± SD","[1]; FXS, 10 weeks, baseline 11.1 ± 2.6, p 0.15",9.8 ± 4.1
same,"Aberrant Behavior Checklist-Hyperactivity (ABC-H), end point mean ± SD","[1]; FXS, 10 weeks",11.0
same,"Aberrant Behavior Checklist-Hyperactivity (ABC-H), end point mean ± SD",[1]; [4],11.0 ± 8.6
same,"ADHD Rating Scale 4th Edition (ADHD-RS), end point mean ± SD","[1]; FXS, 10 weeks",16.7
same,"ADHD Rating Scale 4th Edition (ADHD-RS), end point mean ± SD",[1]; [4],16.7 ± 8
same,"Vineland Adaptive Behavior Scale (VABS) Communication Domain, end point mean ± SD","[1]; FXS, 10 weeks",66.6
same,"Vineland Adaptive Behavior Scale (VABS) Communication Domain, end point mean ± SD",[1]; [4],66.6 ± 11.2
same,"VABS Expressive Communication Subdomain, end point mean ± SD","[1]; FXS, 10 weeks",78.9
same,"VABS Expressive Communication Subdomain, end point mean ± SD",[1]; [4],78.9 ± 21.2
same,"Peabody Picture Vocabulary Test (PPVT), end point mean ± SD","[1]; FXS, 10 weeks, baseline 85.2 ± 32.0, p 0.53",83.3 ± 32
same,"Social Responsiveness Scale total score (SRS), end point mean ± SD","[1]; FXS, 10 weeks",76.4
same,"Social Responsiveness Scale total score (SRS), end point mean ± SD",[1]; [4],76.4 ± 26.8 and 76.42 ± 26.8
same,decline of mean ABC-H score,"[1]; baseline to endpoint, FXS",35%
same,decline of mean ABC-SA score,"[1]; baseline to endpoint, FXS",51%
same,decline of mean ABC-SW score,"[1]; baseline to endpoint, FXS",53%
same,decline of mean ADHD-RS score,"[1]; baseline to endpoint, FXS",29%
same,decline of mean total SRS raw score,"[1]; baseline to endpoint, FXS",16%
same,improvement of mean VABS Communication Domain standard score,"[1]; baseline to endpoint, FXS",5%
same,improvement of mean VABS Expressive Communication score,"[1]; baseline to endpoint, FXS",13%
same,decline of SRS Social Motivation subscale,"[1]; baseline to endpoint, FXS, p=0.003",28%
same,decline of SRS Social Cognition subscale,[1]; [5],19%
same,decline of SRS Social Communication subscale,[1]; [5],14%
same,"Effect Size, ABC-H",[1]; [6],0.64
same,"Effect Size, ABC-SA",[1]; [6],0.64
same,"Effect Size, ABC-SW",[1]; [6],0.81
same,"Effect Size, ADHD-RS",[1]; [6],0.65
same,"Effect Size, CGI-S",[1]; [6],2.0
same,"Effect Size, SRS total score",[1]; [6],0.54
same,"Effect Size, VABS Communication Domain",[1]; [6],0.3
same,"Effect Size, VABS Expressive Communication Subdomain",[1]; [6],0.4
same,"Effect Size, VABS Communication Domain","[1]; mean change from baseline to endpoint divided by SD at baseline, FXS, listed as Acamprosate",0.32
same,"treatment responders, number of subjects",[1]; of 12 youth with FXS,9
same,"sAPP (total)-CP, Week 12",sAPP,5.561 ng/mL and 25.16 ng/mL and 12.84 ng/mL and 8.077 ng/mL and 56.8 ng/mL and 7.547 ng/mL
same,alcohol intake,[2],reduced alcohol intake
same,hormone levels,[3],"lowers levels of several hormones: leptin, beta endorphin, cortisol"
